Assay results published in patent US11613552B2, “Pharmaceutical agents, compositions, and methods relating thereto” (Alltech, Inc., priority 2017, dated 2023).
“Also recorded” adds a separate entry of the source.

Experiments:
[1] = molecular target: T1, native insulin receptor (Insr) (Rattus norvegicus, UniProt P15127); experiment: In vitro cell-free phosphorylation of native insulin receptor; format: biochemical
T1 construct: native insulin receptor proteins, containing both alpha and beta subunits; purchased Sigma I9266; host or cells: purified from rat liver tissue
T1 sequence (P15127 764-1383 limits assumed): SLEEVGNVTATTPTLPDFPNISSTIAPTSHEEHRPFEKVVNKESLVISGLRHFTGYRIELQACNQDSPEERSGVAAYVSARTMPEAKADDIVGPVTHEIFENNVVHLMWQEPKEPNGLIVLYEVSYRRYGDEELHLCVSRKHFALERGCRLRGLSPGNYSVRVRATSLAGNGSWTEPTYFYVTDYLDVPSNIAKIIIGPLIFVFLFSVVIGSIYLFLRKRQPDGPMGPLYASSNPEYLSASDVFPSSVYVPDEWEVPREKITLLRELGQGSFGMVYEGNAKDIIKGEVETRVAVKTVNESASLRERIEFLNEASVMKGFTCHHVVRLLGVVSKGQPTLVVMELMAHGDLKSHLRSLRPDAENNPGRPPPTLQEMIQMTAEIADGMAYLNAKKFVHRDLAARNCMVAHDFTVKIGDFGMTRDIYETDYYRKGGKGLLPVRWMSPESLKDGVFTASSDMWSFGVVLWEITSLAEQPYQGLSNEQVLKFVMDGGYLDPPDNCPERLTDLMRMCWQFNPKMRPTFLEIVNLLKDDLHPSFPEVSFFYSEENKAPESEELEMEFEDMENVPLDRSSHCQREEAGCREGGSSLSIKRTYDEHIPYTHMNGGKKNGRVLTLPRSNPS
T1 sequence (P15127 27-759 partner limits assumed): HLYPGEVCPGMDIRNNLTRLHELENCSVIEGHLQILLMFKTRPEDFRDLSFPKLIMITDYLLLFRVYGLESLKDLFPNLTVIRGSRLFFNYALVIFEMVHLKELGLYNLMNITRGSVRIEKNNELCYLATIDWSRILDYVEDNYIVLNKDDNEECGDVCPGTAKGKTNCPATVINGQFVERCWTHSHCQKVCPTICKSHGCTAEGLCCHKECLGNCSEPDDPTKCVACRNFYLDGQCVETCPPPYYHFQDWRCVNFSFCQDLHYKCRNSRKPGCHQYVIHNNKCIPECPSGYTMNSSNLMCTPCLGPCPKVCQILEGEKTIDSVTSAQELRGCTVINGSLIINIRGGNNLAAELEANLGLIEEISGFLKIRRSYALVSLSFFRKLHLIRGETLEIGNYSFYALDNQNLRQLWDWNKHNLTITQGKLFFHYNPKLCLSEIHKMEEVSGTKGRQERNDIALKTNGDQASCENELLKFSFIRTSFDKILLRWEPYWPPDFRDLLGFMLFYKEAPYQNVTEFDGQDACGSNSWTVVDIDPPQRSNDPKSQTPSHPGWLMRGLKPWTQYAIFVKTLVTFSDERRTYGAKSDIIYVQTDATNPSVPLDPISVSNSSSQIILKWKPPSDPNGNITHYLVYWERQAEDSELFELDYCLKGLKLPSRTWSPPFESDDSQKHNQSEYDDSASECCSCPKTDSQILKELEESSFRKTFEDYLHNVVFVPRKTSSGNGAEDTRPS
Procedure: In vitro phosphorylation of Insr was performed according to Sigma's protocol with the following modifications. In brief, 10 μl of native insulin receptor solution containing 0.8 μl of original native INSR stock solution (Sigma, Catalog #I9266; diluted in enzyme dilution buffer containing 50 mM HEPES, pH 7.6, 150 mM NaCl and 0.1% Triton X-100) were incubated with equal volume of solutions containing insulin (Sigma), DMSO (Compound #43 solvent), Compound #43 or Compound #68 (diluted in 50 mM HEPES, pH 7.6 and 100 μg/ml bovine serum albumin) on ice for 30 min. Then 20 μl of 2× kinase buffer containing 0.2 mM ATP, 50 mM HEPES, pH 7.6, 50 mM MgCl2 and 4 mM MnCl2 were added to the above reactions, mixed and incubated on ice for 45 minutes.
Five microliters of the above reactions were immediately subjected to Western blot analysis using specific antibodies against phosphorylated tyrosine residues at 1146, 1150 and 1151 of Insrβ proteins (Cell Signaling Inc.). Protein band density was determined using the NIH Image J software.

[2] = test system: Pdk1/Akt/Foxo1; experiment: Western blot of Pdk1/Akt/Foxo1 in AML-12 cells under simulated diabetic conditions (8-CPT/Dex); format: cell-based, mouse; conditions: for pFoxo1 levels / total Foxo1 protein levels: 300 ppb Compound #43 or 10 nM insulin, 6 hr
Procedure: AML-12 cells were used to investigate whether Compound #43 can regulate Pdk1/Akt/Foxo1 signaling molecules in the liver cells following induction with diabetic stimuli. Amplified AML-12 cells were seeded on 6-well (1×10^6 cells/well) plates and cultured in 10% FBS but ITS/Dex-free DMEM/F12 media for 24 hr. Then these cells were washed twice with PBS to remove residual sera, and serum-starved in plain DMEM/F12 media overnight. These serum-starved AML12 cells were treated with the diabetic stimuli 8-CPT (0.1 mM) and Dex (0.5 μM) in combination, without (Control group) or with 10 nM insulin or Compound #43 (300 ppb) in serum-free plain DMEM/F12 media for 60 minutes, 90 minutes, and 6 hr, respectively.
After the above described treatments, cultured HepG2 and AML-12 cells were rinsed twice with ice-cold PBS and lysed in ice-cold RIPA buffer containing complete proteinase and phosphatase inhibitors (Thermo-Fisher Scientific, Waltham, Mass.) on ice for 30 min. Cell lysates were collected using a cell scraper and transfer pipette, and then centrifuged at 12000×g for 30 min at 4° C. to remove the DNA pellet and obtain the protein extract. Protein levels in the supernatant of these cell lysates were determined using the Pierce Micro-BCA protein assay kit (Thermo Scientific-Piece Biotechnology, Rockford, Ill.) according to the manufacturer's protocol.
One hundred micrograms of liver tissue proteins or five micrograms of total proteins from control- and compound(s)-treated HepG2 or AML-12 cells were subjected to SDS-PAGE gel separation and then transferred to PVDF membranes, as described previously (Reddy et al. 2008 Science). Membranes were blocked in a phosphate-buffered saline (PBS) containing 5% (w/v) of bovine serum albumin (Sigma, St. Louis, Mo.) and incubated with specific primary antibodies followed by the incubation with HRP-conjugated anti-mouse or anti-rabbit secondary antibodies (1:5000 dilution, Cell Signaling Inc.). All primary antibodies except Gapdh (Li-COR, Lincoln, Nebr.) were purchased from Cell Signaling Inc. Positive signals on the membrane blots were detected using the Amersham's enhanced chemiluminescence Western Blotting Prime Detection reagents (GE Healthcare Lifescience, Pittsburgh, Pa.). Images of these luminescence signals on the membrane blots were captured using the LI-COR Odyssey Fc Image system (Lincoln, Nebr.). The same membrane blot was stripped and re-blotted with another antibody as described in the GE WB ECL-prime-detection protocol (GE healthcare Lifescience, Pittsburgh, Pa.). Protein band densities in the Western blots were determined using the NIH ImageJ software and then normalized by Gapdh or Actb/ACTB level in each sample. Data are presented as mean±SEM of three samples per each group.

[3] = test system: HepG2 cells; experiment: Glucose production assay in HepG2 cells; format: cell-based, human; conditions: for reduction in glucose production compared with 100 nM insulin / CDE / reduction in glucose production: 48 hr; for reduction in glucose production: serum-free
Procedure: Equal numbers of Human HepG2 or rat H4IIE cells (1-1.5×10^5 cells/well) were seeded on 96 well plates in 10% FBS-containing media for 24 hr. Cells were then washed twice with PBS, and treated with various concentrations of compounds, metformin or insulin in 100 μl of glucose production media (glucose-free, phenol red-free DMEM media supplemented with 20 mM sodium lactate, 2 mM sodium pyruvate and 5 mM HEPES) at 37° C. for 24 hr (H4IIE cells only) or 48 hr (HepG2 cell only). Cells were also incubated with 0.24% DMSO (the maximal volume of DMSO solvent used in the experiments).
After the above treatments, 50 μl of culture media were collected, and subjected to glucose analysis using Molecular Probes Amplex Red glucose assay kit (Cat #A22189) according to the manufacturer's protocol. Cell numbers or viability in the culture plate after the above compound treatments were determined using Promega's CellTiter96® AQueous One Solution Cell Proliferation Assay kits, according to the manufacturer's protocol and instructions. In brief, after removing 50 μl of culture media for glucose assay, cells were incubated with AQueous One solution (25 μl stock solution and 50 μl prewarmed PBS/per well) at 37° C. for 1 hour, and the absorbance of OD490 nm in each sample was determined by the Bio-Tek microplate reader. Cell viability in culture wells were determined by the subtraction of OD490 nm in cultured cells with the OD490 nm in plain culture media (without seeding of cells). Glucose production in the culture cells were obtained by normalizing the glucose concentration in culture media by cell viability in each well. At least 3 samples per each treatment were examined for the above analysis. Data are presented as Mean±SEM of those samples. Experiments were repeated at least twice.
The half maximal inhibitory concentration (IC50 values) of Compound #43 or metformin for the inhibition of glucose production were determined using the ED50 Plus v1.0 online software.

Row | Compound | phosphorylation of Insrβ at Y1146/1150/1151 ([1]; doses of 1.9 and 3.8, cell-free (FIG. 26)) | pFoxo1 levels [2] | total Foxo1 protein levels [2] | phosphorylation of Pdk1, Akt and Foxo1 ([2]; 300 ppb, 60 minutes) | pFoxo1 protein levels ([2]; 300 ppb, 90 minutes) | pPdk1, pAkt, Akt and Foxo1 protein levels ([2]; 300 ppb, 90 minutes) | reduction in glucose production compared with 100 nM insulin / CDE ([3]; 3.8 μM) | reduction in glucose production compared with 100 nM insulin / CDE ([3]; 3.8 μM, listed as compound #43) | reduction in glucose production compared with 100 nM insulin / CDE ([3]; 7.6 μM or higher (7.6, 15.2 and 30.4 μM)) | relative potency among tested compounds in inhibiting glucose production ([3]; FIG. 1 left-hand panel) | IC50 ([3]; Homo sapiens, HepG2, 48 hr, read-out: IC50 (inhibition of glucose production)) [µM] | effect on glucose production in HepG2 cells ([3]; tested doses, serum-free glucose production media, 48 hr (FIG. 1)) | phosphorylation of Insrβ at Y1146/1150/1151 ([1]; insulin 0.5 μM, cell-free (FIG. 26)) | phosphorylation of Pdk1, Akt and Foxo1 ([2]; 10 nM insulin, 60 and 90 minutes) | reduction in glucose production ([3]; 10 nM insulin) [%] | reduction in glucose production ([3]; 100 nM insulin) [%]
1 | C[Se]C[C@H]1O[C@@H](n2cnc3c(N)ncnc32)C(OC(C)=O)C1OC(C)=O (stereo partly drawn) [Compound #43, Adenosine, 5′-Se-methyl-5′-selino-, 2′,3′-diacetate] | significantly enhance the phosphorylation of Insrβ at Y1146/1150/1151 | significant increase in pFoxo1 levels | slight but significant decrease | significantly induced the phosphorylation of Pdk1, Akt and Foxo1 | significant increase in pFoxo1 protein levels | not significantly altered | as potent as the CDE combination product | comparable to that achieved when insulin (100 nM) was used | much more potent than 100 nM insulin; also recorded: more potent than CDE | the most potent | 15.5 | decrease in glucose levels in the culture media; also recorded: inhibited glucose production | – | – | – | –
2 | insulin: insulin purchased from Sigma, positive control | – | increased pFoxo1 | slightly decreased total Foxo1 protein levels | – | – | – | – | – | – | – | – | – | able to induce the phosphorylation of Insrβ at Y1146/1150/1151 | enhanced the phosphorylation of Pdk1, Akt and Foxo1 | 20 | 30
